The subject of this assay is CCRF-CEM cancer cells - leukemia. Put plainly: Fluorometric Microculture Cytotoxicity Assay (FMCA), CCRF-CEM. The format is cell-based. The following applies: Homo sapiens, 72 h incubation. From the text: The Fluorometric Microculture Cytotoxicity Assay, FMCA (Larsson, R., et al.; Anticancer Res, 1989, 9, 1111-1119), is a three day non-clonogenic microplate-based cell viability assay used for measurement of the cytotoxic and/or cytostatic effect of compounds in vitro (Lindhagen, E. et al.; Nat. Protoc., 2008, 3, 1364-1369). FMCA represents a valuable method to measure cytotoxicity in a number of cell types, both cell lines and primary cells from patients (Larsson, R., et al.; Int. J. Cancer, 1992, 50, 177-185; Fridborg, H., et al.; Eur. J. Cancer, 1999. 35, 424-432; Dhar, S., et al.; Br. J. Cancer, 1996, 74, 888-896).
FMCA is based on the principle that fluorescein diacetate (FDA) is converted to the fluorescent probe fluorescein by esterases in the plasma membranes of living cells. For experiments, 96 or 384-well microplates are prepared with compounds and stored at −70° C. until use. Cells are then seeded into the drug-prepared plates and placed in an incubator for 72 h. On the last day of incubation, the plates are washed and a buffer containing FDA is added and incubated with the cells for 45 minutes. Finally the fluorescence per well is measured in a fluorometer and a Survival Index % (SI) for each compound-treated well is calculated with the equation: Compound-treated cells minus blank divided by control cells minus blank. A high SI-value indicates a large percentage of living cells and vice versa.
In subsequent experiments, compounds were tested, along with a number of approved cancer drugs (dasatinib, pazopanib, sorafenib, and sunitinib) as described above. Initially, the acute lymphoblastic leukemia cell line CCRF-CEM was used throughout. In the assay plates, medium was added to six empty wells (blank wells) and wells were filled with PBS and cell suspension and served as control wells. SI-values were then calculated for each compound-treated well as described above. All experiments were conducted twice and a new batch of plates was prepared for each experiment.
For dose-response experiments, 384-well plates were prepared as follows:
Compounds of the invention as well comparative kinase inhibitors sorafenib sunitinib, dasatinib, pazopanib and a reference compound disclosed in WO 2009/071535 (compound #107) were diluted with PBS to a concentration ten-times higher than the desired starting concentration. Then, a Biomek 2000 liquid handling system was employed to serially dilute the compounds in a deep-well 384-well plate. From this plate, assay plates containing 5 μl compound per well were prepared with the Biomek 2000. Certain compounds precipitated when diluted with PBS, and these compounds were therefore prepared in a 96-well plate manually as described above using culture medium RPMI 1640 instead of PBS.
The compounds were also tested at five concentrations, with five times serial dilution on the following cell types: CCRF-CEM, hTERT-RPE1 (normal retinal epithelial cells), hRPTEpiC (normal renal cells), and peripheral blood mononuclear cells (PBMC). Each experiment was performed three times, except for PBMC and hRPTEpiC, which were performed twice. SI-values were calculated, graphs were plotted using GraphPadPrism 5.0 (GraphPad Software Inc. La Jolla, Calif.) and IC50-values for each cell type and compound were determined from the curves.
Regarding `COc1ccc2[nH]cc(CCNc3nccc(Nc4ccc5[nH]cnc5c4)n3)c2c1` [Example 18, N^4-(1H-benzo[d]imidazol-5-yl)-N^2-[2-(5-methoxy-1H-indol-3-yl)ethyl]pyrimidine-2,4-diamine], the EC50 amounted to 420 nM.
With `COC(=O)c1cc2cc(Nc3ccnc(NCCc4c[nH]c5ccc(OC)cc45)n3)ccc2[nH]1` [Example 16, methyl 5-{2-[2-(5-methoxy-1H-indol-3-yl)ethylamino]pyrimidin-4-ylamino}-1H-indole-2-carboxylate], the EC50 is 940 nM.
`Cc1cc2cc(Nc3ccnc(NCCc4c[nH]c5ccc(OC(F)(F)F)cc45)n3)ccc2[nH]1` [Example 7, N^4-(2-methyl-1H-indol-5-yl)-N^2-{2-[5-(trifluoromethoxy)-1H-indol-3-yl]ethyl}pyrimidine-2,4-diamine]: the EC50 turned out to be 140 nM.
With `CCOc1ccc2[nH]cc(CCNc3nccc(Nc4cccc5[nH]c(C)cc45)n3)c2c1` [Example 78, N^2-[2-(5-ethoxy-1H-indol-3-yl)ethyl]-N^4-(2-methyl-1H-indol-4-yl)pyrimidine-2,4-diamine], the EC50 was under 100 nM.
`Cc1cc(Nc2ccc3[nH]c(C)cc3c2)nc(NCCc2c[nH]c3ccccc23)n1` [Example 26, N^2-[2-(1H-indol-3-yl)ethyl]-6-methyl-N^4-(2-methyl-1H-indol-5-yl)pyrimidine-2,4-diamine] came in with an EC50 of 650 nM.
`COc1cc(C)c2[nH]cc(CCNc3nccc(Nc4ccc5[nH]c(C)cc5c4)n3)c2c1` [Example 51, N^2-[2-(5-methoxy-7-methyl-1H-indol-3-yl)ethyl]-N^4-(2-methyl-1H-indol-5-yl)pyrimidine-2,4-diamine] returned an EC50 of 76 nM.
`Cn1ccc2c(Nc3ccnc(NCCc4c[nH]c5ccc(O)cc45)n3)cccc21` [Example 79, 3-[2-({4-[(1-methylindol-4-yl)amino]pyrimidin-2-yl}amino)ethyl]-1H-indol-5-ol] showed an EC50 of under 1000 nM.
Compound `COc1ccc2[nH]cc(CCNc3nc(Nc4ccc5[nH]c(C)cc5c4)cc(N4CCN(C)CC4)n3)c2c1` [Example 30, N^2-[2-(5-methoxy-1H-indol-3-yl)ethyl]-N^4-(2-methyl-1H-indol-5-yl)-6-(4-methylpiperazin-1-yl)pyrimidine-2,4-diamine] came in with an EC50 of 3000 nM.
In the case of `Cc1cc2cc(Nc3ccnc(NCCc4c[nH]c5ccccc45)n3)ccc2[nH]1` [Example 3, N^2-[2-(1H-indol-3-yl)ethyl]-N^4-(2-methyl-1H-indol-5-yl)pyrimidine-2,4-diamine] it was 290 nM.
In the case of `COc1ccc2[nH]cc(CCNc3nccc(Nc4cccc5[nH]c(C)cc45)n3)c2c1` [Example 77, N^2-[2-(5-methoxy-1H-indol-3-yl)ethyl]-N^4-(2-methyl-1H-indol-4-yl)pyrimidine-2,4-diamine] it was under 100 nM; in that of `COc1ccc2[nH]cc(CCNc3nc(C)cc(Nc4ccc5[nH]c(C)nc5c4)n3)c2c1` [Example 57, N^2-[2-(5-methoxy-1H-indol-3-yl)ethyl]-6-methyl-N^4-(2-methyl-1H-benzo[d]imidazol-5-yl)pyrimidine-2,4-diamine], 230 nM.
With `COc1ccc2[nH]cc(CCNc3nccc(Nc4cccc5c4ccn5C)n3)c2c1` [Example 54, N^2-[2-(5-methoxy-1H-indol-3-yl)ethyl]-N^4-(1-methyl-1H-indol-4-yl)pyrimidine-2,4-diamine], the EC50 is 2.8 nM.
With `c1ccc2c(CCNc3ccnc(Nc4ccc5cc[nH]c5c4)n3)c[nH]c2c1` [Example 24, N^4-[2-(1H-indol-3-yl)ethyl]-N^2-(1H-indol-6-yl)pyrimidine-2,4-diamine], the EC50 fell in the range of 1000 to 10000 nM.
For the compound `Cc1nc(Nc2ncc(C(=O)Nc3c(C)cccc3Cl)s2)cc(N2CCN(CCO)CC2)n1` [Ref. 3, dasatinib, reference compound], the EC50 came to 9700 nM.
Regarding `CCOc1ccc2[nH]cc(CCNc3nc(C)cc(Nc4ccc5[nH]c(C)nc5c4)n3)c2c1` [Example 58, N^2-[2-(5-ethoxy-1H-indol-3-yl)ethyl]-6-methyl-N^4-(2-methyl-1H-benzo[d]imidazol-5-yl)pyrimidine-2,4-diamine], a half-maximal response (EC50) required 170 nM.
`COc1ccc2[nH]cc(CCNc3nccc(Nc4ccc5c(c4)nc(CO)n5C)n3)c2c1` [Example 60, (5-{2-[2-(5-methoxy-1H-indol-3-yl)ethylamino]pyrimidin-4-ylamino}-1-methyl-1H-benzo[d]imidazol-2-yl)methanol] had an EC50 of 210 nM.
In the case of `COc1ccc2[nH]c(C)c(CCNc3nc(C)cc(Nc4ccc5[nH]c(C)cc5c4)n3)c2c1` [Example 56, N^2-[2-(5-methoxy-2-methyl-1H-indol-3-yl)ethyl]-6-methyl-N^4-(2-methyl-1H-indol-5-yl)pyrimidine-2,4-diamine] it was 130 nM.
As for `c1ccc2c(CCNc3ccnc(Nc4cccc5[nH]ccc45)n3)c[nH]c2c1` [Example 25, N^4-[2-(1H-indol-3-yl)ethyl]-N^2-(1H-indol-4-yl)pyrimidine-2,4-diamine], the EC50 is 1000 to 10000 nM.
The same measure for `CCOc1ccc2[nH]cc(CCNc3nc(C)cc(Nc4ccc5[nH]c(C)cc5c4)n3)c2c1` [Example 55, N^2-[2-(5-ethoxy-1H-indol-3-yl)ethyl]-6-methyl-N^4-(2-methyl-1H-indol-5-yl)pyrimidine-2,4-diamine]: 53 nM; for `CCOc1ccc2[nH]cc(CCNc3ncc(N)c(Nc4ccc5[nH]c(C)cc5c4)n3)c2c1` [Example 90, N^2-[2-(5-ethoxy-1H-indol-3-yl)ethyl]-N^4-(2-methyl-1H-indol-5-yl)pyrimidine-2,4,5-triamine]: under 100 nM.
`COc1ccc2[nH]cc(CCNc3nccc(N(C)c4ccc5[nH]c(C)cc5c4)n3)c2c1` [Example 61, N^2-[2-(5-methoxy-1H-indol-3-yl)ethyl]-N^4-methyl-N^4-(2-methyl-1H-indol-5-yl)pyrimidine-2,4-diamine] came in with an EC50 of 1000 to 10000 nM.
Compound `COc1ccc2[nH]cc(CCNc3ncc(C)c(Nc4ccc5[nH]c(C)cc5c4)n3)c2c1` [Example 29, N^2-[2-(5-methoxy-1H-indol-3-yl)ethyl]-5-methyl-N^4-(2-methyl-1H-indol-5-yl)pyrimidine-2,4-diamine] registered an EC50 of 57 nM.
For the compound `CCOc1ccc2[nH]cc(CCNc3nccc(Nc4ccc5cc(C)[nH]c5c4)n3)c2c1` [Example 74, N^2-[2-(5-ethoxy-1H-indol-3-yl)ethyl]-N^4-(2-methyl-1H-indol-6-yl)pyrimidine-2,4-diamine], the EC50 was under 100 nM.
The same measure for `COc1cccc2[nH]cc(CCNc3nccc(Nc4ccc5[nH]c(C)cc5c4)n3)c12` [Example 47, N^2-[2-(4-methoxy-1H-indol-3-yl)ethyl]-N^4-(2-methyl-1H-indol-5-yl)pyrimidine-2,4-diamine]: 330 nM; for `CNC(=O)c1cc(Oc2ccc(NC(=O)Nc3ccc(Cl)c(C(F)(F)F)c3)cc2)ccn1` [Ref. 1, sorafenib, reference compound]: 8300 nM; for `COc1ccc2[nH]cc(CCNc3nc(Nc4ccc5c(c4)nc(C)n5C)cc(C(N)=O)n3)c2c1` [Example 86, 6-[(1,2-dimethylbenzimidazol-5-yl)amino]-2-[2-(5-methoxy-1H-indol-3-yl)ethylamino]pyrimidine-4-carboxamide]: under 1000 nM.
The same measure for `COc1ccc2[nH]cc(CCNc3nccc(Nc4ccc5cc[nH]c5c4)n3)c2c1` [Example 20, N^4-(1H-indol-6-yl)-N^2-[2-(5-methoxy-1H-indol-3-yl)ethyl]pyrimidine-2,4-diamine]: 140 nM.
For the compound `Cc1cc2cc(Nc3ccnc(NCCc4c[nH]c5ccc(OCCN6CCOCC6)cc45)n3)ccc2[nH]1` [Example 6, N^4-(2-methyl-1H-indol-5-yl)-N^2-{2-[5-(2-morpholinoethoxy)-1H-indol-3-yl]ethyl}pyrimidine-2,4-diamine], the EC50 is 2900 nM.
Take `CCOc1ccc2[nH]cc(CCNc3nccc(Nc4cccc5[nH]c(C)nc45)n3)c2c1` [Example 83, N^2-[2-(5-ethoxy-1H-indol-3-yl)ethyl]-N^4-(2-methyl-1H-benzimidazol-4-yl)pyrimidine-2,4-diamine]: the EC50 is under 1000 nM.

(Values after patent US9006241B2, “Pyrimidine derivatives” (Noviga Research AB, priority 2011, dated 2015).)
